Assay results published in US20060009519A1, “Antifeeding method against insects” (SUMITOMO CHEMICAL COMPANY, LIMITED, priority 2004, published 2006).

How the values were obtained:
[1] = tested on: termites (Coptotermes formosanus, workers); test: Termite antifeeding test on treated filter paper (Test Example 2); assay type: in vivo; conditions: 10 mg of test compound on filter paper (33 mm in diameter); fifty termites; one week; tests repeated three times
Description: An acetone solution (1 ml) containing 10 mg of the test compound was dropped on filter paper (33 mm in diameter, Milk sediment disk 1026 produced by Toyo Roshi K.K.) and dried at room temperature overnight. The filter paper was set in a white plastic cup (35 mm in diameter) having one hole on side and one hole in bottom, wherein the diameter of the holes are about 3 mm and termites can easily go through the holes. The white plastic cup was put into the 200 ml-volume plastic cup having several holes on the bottom which was covered with gypsum in 2 cm thickness. Fifty termites (Coptotermes formosanus, workers) were put in the 200 ml-volume plastic cup and kept in the container, the bottom of which was filled with wet cotton wool. The container was covered for keeping wet therein. After one week, the filter paper was recovered, dried well at room temperature, and then the weight was measured. The decreasing ratio of the weight was calculated. The tests were repeated three times. For a reference, filter paper treated with only 1 ml of acetone was tested and the decreasing ratio of the weight was calculated in the same manner.

[2] = tested on: termites (Coptotermes formosanus, workers); test: Termite antifeeding test on treated Japanese black pine wood (Test Example 1); assay type: in vivo; conditions: 100 termites, 3 weeks in the dark
Description: A designated amount (10 mg or 100 mg) of octyl gallate was dissolved in 0.3 ml of acetone and uniformly spread on a piece of Japanese black pine wood (1 cm×1 cm×2 cm) with pipette. The wood was allowed to stand overnight at room temperature, dried at 60° C. in a thermostat for 3 days, and then the weight of the wood was measured. The bottom of a 200 ml-volume plastic cup having several holes on the bottom was covered with gypsum in 2 cm thickness. The wood prepared above and 100 termites (Coptotermes formosanus, workers) were put in the plastic cup and kept in the dark for 3 weeks. For that time, cotton wool containing water was set under the plastic cup, and the gypsum was kept wet through the hole. After 3 weeks, the wood was recovered, dried at 60° C. in a thermostat for 3 days, and then the weight of the wood was measured. The decreasing ratio of the weight was calculated. For a reference, a piece of Japanese black pine wood treated with only 0.3 ml of acetone was tested and the decreasing ratio of the weight was calculated in the same manner.

CCCCCCCCCCCCOC(=O)c1cc(O)c(O)c(O)c1 [Dodecyl gallate]
The decreasing ratio of the weight (%) [1]: 1.13%

CCCCCCCCOC(=O)c1cc(O)c(O)c(O)c1 [octyl gallate, Octyl gallate]
The decreasing ratio of the weight (%) ([2]; 10 mg of octyl gallate on Japanese black pine wood (1 cm×1 cm×2 cm)): 2.4%
The decreasing ratio of the weight (%) ([2]; 100 mg of octyl gallate on Japanese black pine wood (1 cm×1 cm×2 cm)): 0.9%

CCCCCCCCCCOC(=O)c1cc(O)c(O)c(O)c1 [Decyl gallate, decyl gallate]
The decreasing ratio of the weight (%) [1]: 0%
